Drawing on patent US20040006236A1, “Diaminopropionic acid derivatives” (priority 1999, published 2004), this text covers IC50 for 30 compounds.

The test system of assay [1] is T lymphocyte proliferation (C57BI/6 spleen cells with irradiated BALB/c spleen cells). As to the kind of experiment: Mixed lymphocyte reaction (MLR), one-way. Format: cell-based, mice. The following applies: Mus musculus, T-lymphocyte; read-out: MLR IC50. The procedure, abridged: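 One-way murine MLR: C57BI/6 responder splenocytes proliferate against irradiated BALB/c stimulators while exposed to serially diluted antagonists in supplemented RPMI1640 for 3 days. Proliferation read as [3H]-thymidine uptake over a final 6 h pulse (0.5 μCi/well), scintillation counted.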

The test system of assay [2] is cell-surface Mac-1 adhesion to immobilized fibrinogen (HL-60 cells). The assay is described as follows: Mac-1/Fibrinogen cell-based screening assay. As to conditions: Homo sapiens, HL-60, HL-60 cells; read-out: Mac-1/Fgn Cell based Assay IC50. More on the design: species or system human. The procedure, abridged: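 Wells coated with fibrinogen and blocked with PVP. Labeled HL-60 cells (2×10^6 cells/mL in RPMI/0.05% BSA/0.2 mM MnCl2) preincubated with DMSO-diluted compounds for 10 min at 37° C, then left to adhere 30 min at 37° C/5% CO2. Unbound cells washed off with TBS.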

pIC50: −log10 of the molar value.

With `O=C(NCc1cccc(O)c1)c1ccc(C(=O)N[C@@H](CNC(=O)c2cccc(O)c2)C(=O)O)c(Cl)c1` [Example 132], the pIC50 in assay [1] was 7.09; in assay [2], 8.48.

On to `O=C(NCc1cccc(O)c1)c1ccc(C(=O)N[C@@H](CNC(=O)c2cccc(I)c2)C(=O)O)c(Cl)c1` [Example 133], for which the pIC50 in assay [1] is 6.20; in assay [2] it was 7.49.

Regarding `COc1ccccc1C(=O)NC[C@H](NC(=O)c1ccc(C(=O)NCc2cccc(O)c2)cc1Cl)C(=O)O` [Example 134], the pIC50 is 5.81 in assay [1] and 6.66 in assay [2].

`COC(=O)c1cccc(C(=O)NC[C@H](NC(=O)c2ccc(C(=O)NCc3cccc(O)c3)cc2Cl)C(=O)O)c1` [Example 136]: the pIC50 is 6.31 in assay [1] and 6.92 in assay [2].

With `Cc1ccccc1C(=O)NC[C@H](NC(=O)c1ccc(C(=O)NCc2cccc(O)c2)cc1Cl)C(=O)O` [Example 137], the pIC50 in assay [1] was 6.49; in assay [2], 7.08.

Take `Cc1cccc(C(=O)NC[C@H](NC(=O)c2ccc(C(=O)NCc3cccc(O)c3)cc2Cl)C(=O)O)c1` [Example 138]: the results for the pIC50 in assay [1] and in assay [2] were 6.69 and 7.77, respectively.

With `O=C(NCc1cccc(O)c1)c1ccc(C(=O)N[C@@H](CNC(=O)c2ccccc2[N+](=O)[O-])C(=O)O)c(Cl)c1` [Example 140], the pIC50 in assay [1] was 6.46; in assay [2] it was 7.01.

In the case of `O=C(NCc1cccc(O)c1)c1ccc(C(=O)N[C@@H](CNC(=O)c2cccc([N+](=O)[O-])c2)C(=O)O)c(Cl)c1` [Example 141], the pIC50 in assay [1] was 6.35; in assay [2], 7.33.

Turning to `O=C(NCc1cccc(O)c1)c1ccc(C(=O)N[C@@H](CNC(=O)c2ccc([N+](=O)[O-])cc2)C(=O)O)c(Cl)c1` [Example 142], the pIC50 was 6.30 in assay [1] and 6.56 in assay [2].

With `O=C(NCc1cccc(O)c1)c1ccc(C(=O)N[C@@H](CNC(=O)c2cc(F)c(F)cc2F)C(=O)O)c(Cl)c1` [Example 145], the results for the pIC50 in assay [1] and in assay [2] were 5.84 and 6.88, respectively.

For `O=C(NCc1cccc(O)c1)c1ccc(C(=O)N[C@@H](CNC(=O)c2cccc(C(F)(F)F)c2)C(=O)O)c(Cl)c1` [Example 146], the figures for the pIC50 in assay [1] and in assay [2] were 6.31 and 6.82, respectively.

`O=C(NCc1cccc(O)c1)c1ccc(C(=O)N[C@@H](CNC(=O)c2ccco2)C(=O)O)c(Cl)c1` [Example 148]: the results for the pIC50 in assay [1] and in assay [2] were 6.47 and 7.12, respectively.

Consider `O=C(NCc1cccc(O)c1)c1ccc(C(=O)N[C@@H](CNC(=O)c2ccc(Br)o2)C(=O)O)c(Cl)c1` [Example 150], for which the pIC50 is 6.10 in assay [1] and 7.19 in assay [2].

In the case of `O=C(NCc1cccc(O)c1)c1ccc(C(=O)N[C@@H](CNC(=O)c2ccc[nH]2)C(=O)O)c(Cl)c1` [Example 151], the values for the pIC50 in assay [1] and in assay [2] were 6.58 and 7.34, respectively.

As for `O=C(NCc1cccc(O)c1)c1ccc(C(=O)N[C@@H](CNC(=O)c2sccc2Br)C(=O)O)c(Cl)c1` [Example 154], the values for the pIC50 in assay [1] and in assay [2] were 6.44 and 7.24, respectively.

Turning to `O=C(NCc1cccc(O)c1)c1ccc(C(=O)N[C@@H](CNC(=O)c2ccc(Br)s2)C(=O)O)c(Cl)c1` [Example 155], the pIC50 in assay [1] was 6.12; in assay [2], 7.29.

Turning to `O=C(NCc1cccc(O)c1)c1ccc(C(=O)N[C@@H](CNC(=O)c2sccc2Cl)C(=O)O)c(Cl)c1` [Example 156], the results for the pIC50 in assay [1] and in assay [2] were 6.33 and 7.19, respectively.

Regarding `O=C(NCc1cccc(O)c1)c1ccc(C(=O)N[C@@H](CNC(=O)c2ccc(Cl)s2)C(=O)O)c(Cl)c1` [Example 157], the pIC50 is 6.15 in assay [1] and 7.47 in assay [2].

As for `O=C(NCc1cccc(O)c1)c1ccc(C(=O)N[C@@H](CNC(=O)c2cc(Br)c(Br)s2)C(=O)O)c(Cl)c1` [Example 158], the pIC50 in assay [1] was 5.12; in assay [2], 7.15.

As for `Cc1ccsc1C(=O)NC[C@H](NC(=O)c1ccc(C(=O)NCc2cccc(O)c2)cc1Cl)C(=O)O` [Example 159], the pIC50 in assay [1] is 6.78; in assay [2] it was 7.44.

`Cc1ccc(C(=O)NC[C@H](NC(=O)c2ccc(C(=O)NCc3cccc(O)c3)cc2Cl)C(=O)O)s1` [Example 160]: the results for the pIC50 in assay [1] and in assay [2] were 6.66 and 7.96, respectively.

In the case of `O=C(NCc1cccc(O)c1)c1ccc(C(=O)N[C@@H](CNC(=O)c2ccsc2)C(=O)O)c(Cl)c1` [Example 161], the pIC50 in assay [1] is 7.03; in assay [2], 7.77.

`C[C@@H](NC(=O)c1cc(Cl)c(C(=O)N[C@@H](CNC(=O)c2cccs2)C(=O)O)c(Cl)c1)c1cccc2ccccc12` [Example 346, N-[2,6-dichloro-4-[[[(1R)-1-(1-naphthalenyl)ethyl]amino]carbonyl]benzoyl]-3-[(thiophene-2-carbonyl)amino]-L-alanine]: the pIC50 in assay [1] is 7.17; in assay [2], 8.40.

For the compound `C[C@@H](NC(=O)c1cc(Cl)c(C(=O)N[C@@H](CNC(=O)c2ccccc2)C(=O)O)c(Cl)c1)c1cccc2ccccc12` [Example 347], the pIC50 in assay [1] was 6.60; in assay [2] it was 7.88.

Consider `O=C(NCc1cccc(O)c1)c1cc(Cl)c(C(=O)N[C@@H](CNC(=O)c2cccc(F)c2)C(=O)O)c(Cl)c1` [Example 349], for which the values for the pIC50 in assay [1] and in assay [2] were 7.38 and 8.21, respectively.

For `O=C(NCc1cccc(O)c1)c1cc(Cl)c(C(=O)N[C@@H](CNC(=O)c2cccc(O)c2)C(=O)O)c(Cl)c1` [Example 350], the values for the pIC50 in assay [1] and in assay [2] were 7.92 and 9.30, respectively.

For `COc1ccc(C(=O)NC[C@H](NC(=O)c2c(Cl)cc(C(=O)NCc3cccc(O)c3)cc2Cl)C(=O)O)cc1O` [Example 351], the pIC50 is 7.64 in assay [1] and 8.52 in assay [2].

With `O=C(NCc1cccc(O)c1)c1cc(Cl)c(C(=O)N[C@@H](CNC(=O)c2sccc2Br)C(=O)O)c(Cl)c1` [Example 353], the figures for the pIC50 in assay [1] and in assay [2] were 7.28 and 7.89, respectively.

`O=C(NCc1cccc(O)c1)c1cc(Cl)c(C(=O)N[C@@H](CNC(=O)c2ccc(Br)s2)C(=O)O)c(Cl)c1` [Example 354]: the pIC50 was 6.69 in assay [1] and 7.92 in assay [2].

Take `Cc1ccc(C(=O)NC[C@H](NC(=O)c2c(Cl)cc(C(=O)NCc3cccc(O)c3)cc2Cl)C(=O)O)s1` [Example 358]: the pIC50 in assay [1] was 7.19; in assay [2], 8.19.
